{"source": "patent US20030036513A1", "about": "“Method for treating cancer” (priority 1999, published 2003)", "key": {"cells": {"test_system": "cells", "experiment": "Chemosensitizing of an anti-cancer agent by a co-administered redox clamping agent (FIG. 2)", "assay_type": "cell-based", "from_the_text": "The present invention further provides a method of reducing the effective dose of an anti-cancer agent necessary to be effective against cancer comprising administering a redox clamping agent in conjunction with an anti-cancer agent. It is preferred that the redox clamping agent is Mesna or DMSA. Redox clamping agents have the ability to maintain cells in a selected redox state. […] Redox clamping agents are useful in enhancing the therapeutic activity of chemotherapeutic agents such as butyrate that are dependent upon the redox state of the cell. Redox clamping agents are further useful in controlling hyperproliferation of cells and conditions associated with abnormal fluctuations in the redox state of cells. In one aspect, this invention provides a method of treating cancerous tumors comprising administering an effective dose of an anti-cancer agent in conjunction with a redox clamping agent, wherein the redox clamping agent acts as a chemoenhancer or a chemosensitizer. […] The administration of Mesna in conjunction with an anti-cancer agent may be as separate compounds or in a composition formulated and titrated to a dose and in a concentration that would achieve the optimal therapeutic dose of the anti-cancer agent providing a higher tumor cell kill with a lower dose of the anti-cancer agent than the typical therapeutic dose administered to a patient. […]"}, "H4 Rat Hepatoma cells": {"test_system": "H4 Rat Hepatoma cells", "experiment": "Stress-induced antioxidant upswing in H4 Rat Hepatoma cells after hydrogen peroxide", "assay_type": "cell-based", "settings": "100 uM hydrogen peroxide for two hours, medium replaced; determined after 24 hours in culture", "method": "To further exemplify the redox clamping properties of Mesna, stress was induced in H4 Rat Hepatoma cells by treatment with 100 uM hydrogen peroxide for two hours and then the medium was removed and replaced with an anti-cancer agent. The cellular viability, as well as glutathione and metallothionein levels were determined after 24 hours in culture. […] The inhibition of stress induced upswing in antioxidant levels is characteristic of redox clamping agents.\nIn all of the experiments associated with the investigation of Mesna as a redox clamping agent, as a stand-alone anticancer agent as well as a chemosensitizer, the cell culture medium used was Swim's S-77 medium containing 12 uM cystine, instead of conventional levels of this amino acid (i.e., 50 uM). All other components of the medium were maintained at conventional concentrations. […] The ability of cystine to supply cells with cysteine, which then function as a precursor amino acid for glutathione synthesis, is thought to be responsible for the abnormally high basal levels of glutathione in cultured tumor cell lines."}, "Human LNCaP cells": {"test_system": "Human LNCaP cells", "experiment": "Two-step arsenic then Mesna treatment of human LNCaP cells: apoptosis and glutathione levels (FIG. 1)", "assay_type": "cell-based", "method": "In one aspect, the present invention further provides a method of using a redox clamping agent as a chemosensitizer comprising contacting tumor cells with a specific class of cytotoxic agent for a period of time, preferably between 2 and 4 hours, and then washing the agent from the cells and administering the redox clamping agent. It is preferred that the redox clamping agent is Mesna. The cytotoxic or anti-cancer agents used in this design would be those such as arsenic, hydrogen peroxide and other anti-cancer agents that are known to induce a cytotoxic effect by interacting with, depleting or sequestering cellular thiols. During the two to four hour treatment these anti-cancer agents deplete cellular thiols and induce apoptotic mechanisms in the cells. However, the stress-response that is induced in the cells by these anti-cancer agents also up-regulates the production of antioxidants such as glutathione and metallothionein. These antioxidants function as potent inhibitors of apoptosis. If redox clamping agents are added after the apoptotic mechanisms are initiated, but prior to the antioxidant rebound, the redox clamping agents will function in two ways to enhance the cytotoxic effects of the anti-cancer agents. It is preferred that the redox clamping agent be Mesna, which is a thiol with low reducing potential. First, the redox clamping agents will permit the progression of apoptotic signals and the mechanisms required to mediate cell death. Secondly, the redox clamping agents will promote the apoptotic response by dramatically attenuating the antioxidant “rebound” that is associated in the inhibition of apoptosis. Redox clamping agents chemically interact with the anti-cancer agent or oppose aspects of the early stress-response that is induced by pure oxidants. Therefore, a two-step treatment protocol is required.\nHuman LNCaP cells, treated with 100 uM arsenic for 2 hours then washed and re-fed with normal medium, develop an elevation in cellular glutathione levels over a 24-hour period. Since exogenous antioxidants are known to be potent inhibitors of apoptotic mechanism, it is believed that internally-produced antioxidants such as glutathione function in a similar manner. […] Although Mesna increases apoptosis alone, the low concentrations of Mesna utilized in this two-step treatment protocol increased apoptosis minimally i.e., to 11 percent from a background of 3 to 5 percent in untreated cells.\n(§1) In all of the experiments associated with the investigation of Mesna as a redox clamping agent, as a stand-alone anticancer agent as well as a chemosensitizer, the cell culture medium used was Swim's S-77 medium containing 12 uM cystine, instead of conventional levels of this amino acid (i.e., 50 uM). […]"}, "human tumor cell lines": {"test_system": "human tumor cell lines", "experiment": "Growth inhibition of human tumor cell lines in culture", "assay_type": "cell-based", "from_the_text": "The present invention provides a method of treating lymphoma, ovarian cancer, colorectal cancer, or gastric cancer comprising administering an effective amount of Mesna to a patient with lymphoma, ovarian cancer, colorectal cancer or gastric cancer. Mesna inhibits the growth of several human tumor cell lines in culture, and there are no strict relationships between the histopathological origin of the cell lines and the sensitivity of the cell lines to Mesna. […] It is further preferred that the patient be administered Mesna for a seven to ten day period. The doses may be cycled. The actual dose will be dependent on the size, type and location of the tumor as well as the overall status of the patient. It is preferred that high concentrations of Mesna be administered intravenously to achieve clamping initially, with further administration of oral doses to maintain the clamped state. […] Cancer cell lines were growth inhibited when Mesna was administered on several consecutive days. Mesna has shown good activity in preventing the urotoxicity of oxazaphosphorine compound.\nas §1"}, "[1]": {"settings": "even in very high dose, i.e. 1000 mg/kg; cited from earlier work"}, "[2]": {"test_system": "metastatic and/or relapsed tumors refractory to conventional therapy", "experiment": "Clinical study of oral Mesna as single agent in 14 patients with metastatic and/or relapsed tumors refractory to conventional therapy", "assay_type": "in vivo, human", "method": "From December 1996 to March 1998 a study was performed on 14 ambulatory patients with metastatic and/or relapsed tumors refractory to conventional therapy. Eligibility criteria included histologically-confirmed advanced cancer, patients age was greater than 18 years, with a life expectancy no less than two months. The patients had not undergone major surgery within 2 weeks, or radiotherapy and/or chemotherapy within one month of the study. […] Exclusion criteria included active uncontrolled infection, pregnancy, lactation and any other co-existing medical problems severe enough to prevent full compliance with the study. Objectively measurable disease in the patients was required. All patients gave informed written consent before treatment. 600 mg/m^2 of Mesna was given by oral route four times a day, masked in orange juice for 10 consecutive days. Cycles were repeated every 15 days. No simultaneous chemotherapy and or radiotherapy and no other supportive care was given. The main objective of the study was to determine the anti-tumoral activity and toxicity of Mesna for heavily and or refractory pretreated cancer patients. […] The patients were all previously treated with between two and four different chemotherapy regimens. Mesna was administered as a single agent to all of the patients in the study. The toxic effects of Mesna and number of nodes were assessed during the first cycle of Mesna administration. […] For colorectal cancer a greater than 50% reduction of nodular lesions metastasized to liver was registered, during the second schedule of therapy. For gastric cancer a greater than 50% reduction of a subcutaneous nodule was measured during the second course of Mesna treatment."}, "[3]": {"settings": "within a few minutes after administration; cited from earlier work"}, "[4]": {"settings": "arsenic treated cells washed and incubated in medium containing 100 uM Mesna"}}, "data": [{"compound": "CCCC(=O)O", "note": "[Butyrate]", "values": [{"measurement": "concentration at which apoptosis is induced", "setting": "cells; butyrate alone", "result": "greater than 3 mM"}, {"measurement": "concentration giving an effective kill", "setting": "cells; in the presence of a redox clamping agent", "result": "≥ 0.5", "unit": "mM"}]}, {"compound": "O=C(O)[C@@H](S)[C@@H](S)C(=O)O", "note": "[DMSA]", "values": [{"measurement": "effect on stress-induced upswings in antioxidant levels (glutathione, metallothionein)", "setting": "H4 Rat Hepatoma cells", "result": "oppose stress-induced upswings in antioxidant levels"}]}, {"compound": "O=S(=O)([O-])CCS.[Na+]", "note": "[Mesna, Sodium-2-mercaptoethane sulphonate]", "values": [{"measurement": "elevation in glutathione levels", "setting": "Human LNCaP cells; [4]", "result": "dramatically diminished"}, {"measurement": "fraction of apoptotic cells compared to arsenic alone", "setting": "Human LNCaP cells; [4]", "result": "increased more than two-fold"}, {"measurement": "apoptosis with Mesna alone", "setting": "Human LNCaP cells; low concentration of Mesna as used in the two-step protocol, background 3 to 5 percent in untreated cells", "result": 11, "unit": "%"}, {"measurement": "effect on stress-induced upswings in antioxidant levels (glutathione, metallothionein)", "setting": "H4 Rat Hepatoma cells", "result": "oppose stress-induced upswings in antioxidant levels"}, {"measurement": "incorporation of 3H-thymidine, proline and uridine", "setting": "human tumor cell lines", "result": "inhibited incorporation"}, {"measurement": "growth of human tumor cell lines in culture", "setting": "human tumor cell lines; lymphoma, ovarian cancer, colorectal cancer, gastric cancer lines, drug administered on several consecutive days", "result": "inhibits growth of several human tumor cell lines"}, {"measurement": "pharmacological and toxicological behaviour", "setting": "[1]", "result": "relatively inert substance"}, {"measurement": "reduction of nodular lesions metastasized to liver", "setting": "[2]; colorectal cancer patient, 600 mg/m^2 oral four times a day, second schedule of therapy", "result": "greater than 50%"}, {"measurement": "reduction of a subcutaneous nodule", "setting": "[2]; gastric cancer patient, 600 mg/m^2 oral four times a day, second course of treatment", "result": "greater than 50%"}, {"measurement": "objective responses", "setting": "[2]; patients with lung cancer, soft tissue sarcoma, skin metastases of unknown origin, bladder cancer, melanoma and cancer of the cervix", "result": "No objective responses were achieved"}, {"measurement": "clinical response in ovarian cancer patients", "setting": "[2]; two patients, 600 mg/m^2 oral four times a day for 10 days, cycles every 15 days, second and third course respectively", "result": "reduced ascites and pain"}, {"measurement": "administered dose transformed into Mesna disulphide", "setting": "[3]", "result": "more than 90%"}]}, {"compound": "[AsH3]", "note": "[arsenic]", "values": [{"measurement": "apoptosis of the cells", "setting": "Human LNCaP cells; 100 uM arsenic for 2 hours, then washed and re-fed with normal medium, 24-hour period", "result": 28, "unit": "%"}]}]}
